This is an account of results in patent US5254533A, “Elfamycin” (Rhone-Poulenc Rorer S.A., priority 1990, dated 1993).

The nature of assay [1]: Use as a growth factor in weaned piglets (Example 5). It counts as in vivo, weaned Large-White Belgian Landrace crossed piglets. To be noted: for Weight gain / Consumption / Intermediate Weight / Initial weight / Index of consumption: 40 ppm in feed; for Initial weight: start of period 14-28 days; for Index of consumption: consumption/weight gain ratio.
The nature of assay [2]: Use as a growth factor in piglets (Example 6). It counts as in vivo, weaned Large-White Belgian Landrace crossed piglets. To be noted: 40 ppm in feed; for Final weight: control 24.7. The text has this:
130 weaned Large-White Belgian Landrace crossed piglets were used. The experiment began 2 weeks after weaning of the animals, i.e. at a mean age of 42 days.
The animals received the experimental feed ad libitum in the form of granules 2.5 mm in diameter.
The animals were weighed at the beginning, middle and end of the experiment. The consumptions were noted every week.
Tables 7, 8 and 9 respectively show the percentage composition and the characteristics of the diets, the percentage composition of the CMV and the percentage composition of the premixes.
The results are shown in Table 10 for the period 0-14 days, Table 11 for the period 14-28 days and Table 12 for the period 0-28 days.

[3] abbreviates: Table 4, 0-14 days, control 15.3.
The mark [4] stands for this setting: Table 5, 14-28 days, control 23.1.
Setting [5] is: Table 6, 0-28 days, control 23.1.

On to `CC[C@H]1OC(=O)C[C@@H](O)[C@H](C)[C@@H](O[C@@H]2O[C@H](C)[C@@H](O[C@H]3C[C@@](C)(O)[C@@H](O)[C@H](C)O3)[C@H](N(C)C)[C@H]2O)[C@@H](CC=O)C[C@@H](C)C(=O)/C=C/C(C)=C/[C@@H]1CO[C@@H]1O[C@H](C)[C@@H](O)[C@@H](OC)[C@H]1OC` [tylosin, reference compound], for which the Weight gain in assay [1] (0-14 days, control 329) was 351 g/day; in assay [1] (0-28 days, control 445), 470 g/day; in assay [1] (14-28 days, control 560), 588 g/day. Further, the Consumption stood at 619 g/day in assay [1] (0-14 days, control 614); 826 g/day in assay [1] (0-28 days, control 822); 1033 g/day in assay [1] (14-28 days, control 1031). Besides, the figures for the “Intermediate Weight” value in assay [1] (setting [3]), in assay [1] (setting [4]) and in assay [1] (setting [5]) were 15.6 kg, 23.8 kg and 23.8 kg, respectively. The Initial weight in assay [1] (control 15.3) came to 15.6 kg. For the same compound, the Index of consumption turned out to be 1.79 in assay [1] (0-14 days, control 1.88); 1.76 in assay [1] (0-28 days, control 1.85); 1.76 in assay [1] (14-28 days, control 1.86).
With “spiramycin embonate [reference compound]”, the Weight gain was found to be 393 g/day in assay [1] (0-14 days, control 329); 518 g/day in assay [1] (0-28 days, control 445); 647 g/day in assay [1] (14-28 days, control 560); 423 g/day in assay [2] (0-14 days, control 368); 532 g/day in assay [2] (0-28 days, control 474); 640 g/day in assay [2] (14-28 days, control 579). The Consumption was 668 g/day in assay [1] (0-14 days, control 614); 908 g/day in assay [1] (0-28 days, control 822); 1147 g/day in assay [1] (14-28 days, control 1031); 715 g/day in assay [2] (0-14 days, control 645); 923 g/day in assay [2] (0-28 days, control 852); 1130 g/day in assay [2] (14-28 days, control 1059). For the same compound, the “Intermediate Weight” value in assay [1] (setting [3]) came to 16.3 kg; in assay [1] (setting [4]) it was 25.4 kg; in assay [1] (setting [5]) it was 25.4 kg. The same compound returned an Initial weight in assay [1] (control 15.3) of 16.3 kg. In addition, the Index of consumption in assay [1] (0-14 days, control 1.88) was 1.72; in assay [1] (0-28 days, control 1.85) it was 1.75; in assay [1] (14-28 days, control 1.86), 1.79; in assay [2] (0-14 days, control 1.76), 1.70; in assay [2] (0-28 days, control 1.80), 1.73; in assay [2] (14-28 days, control 1.84), 1.77. The “effect on consumption (in words)” value is reported as “increase in consumption” in assay [1] (first period 0-14 days) and “significantly increased” in assay [1] (overall period 0-28 days). In addition, the “effect on growth (in words)” value in assay [1] (overall period 0-28 days, relative to basic diet) is “significantly increased”; in assay [1] (second period 14-28 days), “significantly improved”. In addition, the Final weight in assay [2] (Table 11, 14-28 days) stood at 26.3 kg; in assay [2] (Table 12, 0-28 days) it was 26.3 kg.
